This note sets out measurements from patent US20090227597A1, “PYRAZOLOPYRIMIDINONES AS PHOSPHODIESTERASE INHIBITORS” (CTG PHARMA S.R.L., priority 2004, published 2009).

SMILES strings stand for the structures. Structures can show the parent of a compound that is named as a salt.

One data set addresses PDE5 enzyme (Homo sapiens, UniProt O76074). The data set can be described thus: in vitro inhibition of cGMP PDE5. In kind it is biochemical. An excerpt: The compounds of the present invention have been tested in vitro and found to be potent and selective inhibitors of cGMP PDE5.

As usually defined, the melting point is the temperature, or range, at which the solid turns liquid. As a reminder, the IC50 is the concentration at which inhibition is half-maximal.

Regarding `CCCc1nn(C)c2c(=O)[nH]c(-c3cc(S(=O)(=O)N4CCN(CC(=O)N[C@@H](CS)C(=O)O)CC4)ccc3OCC)nc12` (as salt: salt) (hydrate or solvate) [Example 2, sildenafil analog amide with cysteine], the melting point lay within 166 to 168 °C.
Compound `CCCc1nn(C)c2c(=O)[nH]c(-c3cc(S(=O)(=O)N4CCN(CC(=O)Oc5ccc(-c6cc(=S)ss6)cc5)CC4)ccc3OCC)nc12` [Example 1, sildenafil analog ester with 5-(p-hydroxyphenyl)-3H-1,2-dithiol-3-thione] came in with a melting point of 188 to 189 °C. This compound displayed an IC50 against PDE5 enzyme of 6.8 to 7.2 nM.
`CCCc1nn(C)c2c(=O)[nH]c(-c3cc(S(=O)(=O)N4CCN(CC(=O)N[C@@H](CS)C(=O)O)CC4)ccc3OCC)nc12` [Example 2, sildenafil analog amide with cysteine] gave a half-maximal inhibitory concentration (IC50) against PDE5 enzyme of 6.8 to 7.2 nM.
